From patent publication US9120808B2 (NABRIVA THERAPEUTICS AG, priority 2009, dated 2015)

Tests used:
SHV-1 β-lactamase = SHV-1 β-lactamase (Klebsiella pneumoniae, UniProt P0AD64); assay: Cell-free β-lactamase inhibition study (nitrocefin hydrolysis); type: biochemical; settings: SHV-1; 10 min pre-incubation at 37° C., nitrocefin substrate; read-out: IC50
Method: (§1) Cell-Free-β-Lactamase Inhibition Study
(§2) Assays are performed with β-lactamases expressed in the pET system (Novagen, San Diego, Calif.) without signal peptides. They contain an N-terminal hexa-Histidine tag that is used for purification on Ni-NTA (Qiagen, Hilden, Germany). The compounds are prepared as 50 mM stocks in DMSO and diluted into buffer P1 (50 mM phosphate, pH 7) to a final concentration of 10% DMSO. All further dilutions are done in P2 (P1 with 10% DMSO). Enzyme and compound dilutions are pre-incubated for 10 min at 37° C. and the reaction is started with the addition of pre-warmed (37° C.) nitrocefin at a final concentration of […]. […] The initial velocity is determined and IC50 values are calculated using non-linear regression and sigmoidal dose response analysis with the PRISM 4.0 software (Graphpad Software Inc., San Diego, Calif.).

TEM-1 β-lactamase = TEM-1 β-lactamase (Escherichia coli, UniProt P62593); assay: as above; type: biochemical; settings: 10 min pre-incubation at 37° C., nitrocefin substrate
Sequence of TEM-1 β-lactamase (P62593 whole entry, looked up): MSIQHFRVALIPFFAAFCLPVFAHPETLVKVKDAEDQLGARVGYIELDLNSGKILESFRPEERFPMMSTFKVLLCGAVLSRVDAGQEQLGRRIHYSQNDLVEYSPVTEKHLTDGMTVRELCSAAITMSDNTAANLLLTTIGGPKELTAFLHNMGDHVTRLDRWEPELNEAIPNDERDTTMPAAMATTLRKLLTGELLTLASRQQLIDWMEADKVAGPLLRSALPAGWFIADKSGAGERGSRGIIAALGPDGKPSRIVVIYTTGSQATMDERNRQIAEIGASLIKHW
Method: as §1, §2

Sequence of SHV-1 β-lactamase (P0AD64 whole entry, looked up): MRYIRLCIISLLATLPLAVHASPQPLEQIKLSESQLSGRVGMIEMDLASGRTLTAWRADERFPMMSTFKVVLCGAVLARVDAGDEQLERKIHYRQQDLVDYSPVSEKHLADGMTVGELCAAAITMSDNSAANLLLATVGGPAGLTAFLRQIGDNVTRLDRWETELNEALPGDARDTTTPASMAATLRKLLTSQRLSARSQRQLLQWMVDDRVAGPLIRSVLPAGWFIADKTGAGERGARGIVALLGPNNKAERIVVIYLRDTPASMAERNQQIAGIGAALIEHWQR

Structure (SMILES) | IC50 (SHV-1 β-lactamase) | IC50 (TEM-1 β-lactamase)
C=CCC1(C(=O)OC)C(=CC=O)O[C@@H]2CC(=O)N21 (stereo partly drawn) [Example 17, (5R)-2-Allyl-7-oxo-3-[2-oxo-ethylidene]-4-oxa-1-aza-bicyclo[3.2.0]heptane-2-carboxylic acid methyl ester] | 21.3 µM | 13.3 µM
O=CC=C1O[C@@H]2CC(=O)N2C1(CC=CCO)C(=O)OCc1ccccc1 (single isomer, unassigned) [Example 8] |  | 5.64 µM
O=CC(C/C=C/c1ccccc1)=C1O[C@@H]2CC(=O)N2C1C(=O)OCc1ccccc1 (stereo partly drawn) [Example 4, (5R)-3-[1-Formyl-4-phenyl-but-3-enylidene]-7-oxo-4-oxa-1-aza-bicyclo[3.2.0]heptane-2-carboxylic acid benzyl ester] |  | 0.089 µM
CC(C)(C)C(=O)OCOC(=O)C1C(=C(C=O)C/C=C/c2ccccc2)O[C@@H]2CC(=O)N12 (stereo partly drawn) [Example 18, (5R)-3-[1-Formyl-4-phenyl-but-3-enylidene]-7-oxo-4-oxa-1-aza-bicyclo[3.2.0]heptane-2-carboxylic acid 2,2-dimethyl-propionyloxymethyl ester] | 0.0139 µM | 0.0271 µM
CC(=O)OCC=CCC(C=O)=C1O[C@@H]2CC(=O)N2C1C(=O)OCc1ccccc1 (stereo partly drawn) [Example 10, (5R)-3-[5-Acetoxy-1-formyl-pent-3-enylidene]-7-oxo-4-oxa-1-aza-bicyclo[3.2.0]heptane-2-carboxylic acid benzyl ester] |  | 0.14 µM
C=CC/C(CO)=C1\O[C@@H]2CC(=O)N2C1C(=O)OCc1ccccc1 (stereo partly drawn) [Example 38, (5R)-3-[1-Hydroxymethyl-but-3-en-(E)-ylidene]-7-oxo-4-oxa-1-aza-bicyclo[3.2.0]heptane-2-carboxylic acid benzyl ester] | 6.81 µM | 8.02 µM
O=C(O)C(CC=CCN(Cc1ccccc1)C(=O)OCc1ccccc1)=C1O[C@@H]2CC(=O)N2C1C(=O)OCc1ccccc1 (stereo partly drawn) [Example 58, (5R)-3-[5-(Benzyl-benzyloxycarbonyl-amino)-1-carboxy-pent-3-enylidene]-7-oxo-4-oxa-1-aza-bicyclo[3.2.0]heptane-2-carboxylic acid benzyl ester] | 0.0006 µM | 0.0014 µM
O=C(O)C(C/C=C/c1ccccc1)=C1O[C@@H]2CC(=O)N2C1C(=O)OCc1ccccc1 (stereo partly drawn) [Example 26, (5R)-3-[1-Carboxy-4-phenyl-but-3-enylidene]-7-oxo-4-oxa-1-aza-bicyclo[3.2.0]heptane-2-carboxylic acid benzyl ester] | 0.0363 µM | 0.0092 µM
O=C(OCc1ccccc1)C1C(=C2COC(CI)C2)O[C@@H]2CC(=O)N12 (stereo partly drawn) [Example 59, (5R)-3-[5-Iodomethyl-dihydro-furan-3-ylidene]-7-oxo-4-oxa-1-aza-bicyclo[3.2.0]heptane-2-carboxylic acid benzyl ester] | 3.6 µM | 4.39 µM
CCCC(C(=O)O)=C1O[C@@H]2CC(=O)N2C1C(=O)O (stereo partly drawn) [Example 51, (5R)-3-(1-Carboxy-butylidene)-7-oxo-4-oxa-1-aza-bicyclo[3.2.0]heptane-2-carboxylic acid] | 0.436 µM | 0.254 µM
C=CCC1(C(=O)OCc2ccccc2)/C(=C/CO)O[C@@H]2CC(=O)N21 (stereo partly drawn) [Example 40, (5R)-2-Allyl-3-[2-hydroxy-ethylidene]-7-oxo-4-oxa-1-aza-bicyclo[3.2.0]heptane-2-carboxylic acid benzyl ester] |  | 23.6 µM
C=CCC(C=O)=C1O[C@@H]2CC(=O)N2C1C(=O)OCc1ccccc1 (stereo partly drawn) [Example 1, (5R)-3-(1-Formyl-but-3-enylidene)-7-oxo-4-oxa-1-aza-bicyclo[3.2.0]heptane-2-carboxylic acid benzyl ester] |  | 0.0666 µM
CC1CC(=C2O[C@@H]3CC(=O)N3C2C(=O)O)C(=O)O1 (stereo partly drawn) [Example 50, (5R)-3-(5-Methyl-2-oxo-dihydro-furan-3-ylidene)-7-oxo-4-oxa-1-aza-bicyclo[3.2.0]heptane-2-carboxylic acid] |  | 0.0042 µM
O=CC=C1O[C@@H]2CC(=O)N2C1(CC=CCO)C(=O)OCc1ccccc1 (single isomer, unassigned) [Example 9] | 1.04 µM | 0.828 µM
[N-]=[N+]=NCC1C/C(=C2\O[C@@H]3CC(=O)N3C2C(=O)OCc2ccccc2)C(=O)O1 (stereo partly drawn) [Example 48, (5R)-3-(5-Azidomethyl-2-oxo-dihydro-furan-3-ylidene)-7-oxo-4-oxa-1-aza-bicyclo[3.2.0]heptane-2-carboxylic acid benzyl ester] | 0.0042 µM | 0.0024 µM
CC(C)(C)C(=O)OCOC(=O)C1(C/C=C/c2ccccc2)C(=CC=O)O[C@@H]2CC(=O)N21 (stereo partly drawn) [Example 19, (5R)-7-oxo-3-(2-oxo-ethylidene)-2-(3-phenyl-allyl)-4-oxa-1-aza-bicyclo[3.2.0]heptane-2-carboxylic acid 2,2-dimethyl-propionyloxymethyl ester] | 0.617 µM | 0.871 µM
CCCC(C(=O)O)=C1O[C@@H]2CC(=O)N2C1C(=O)OC (stereo partly drawn) [Example 54, (5R)-3-(1-Carboxy-butylidene)-7-oxo-4-oxa-1-aza-bicyclo[3.2.0]heptane-2-carboxylic acid methyl ester] | 0.295 µM | 0.097 µM
COC(=O)C1C(=C(CCCc2ccccc2)C(=O)O)O[C@@H]2CC(=O)N12 (stereo partly drawn) [Example 53, (5R)-3-(1-Carboxy-4-phenyl-butylidene)-7-oxo-4-oxa-1-aza-bicyclo[3.2.0]heptane-2-carboxylic acid methyl ester] | 0.219 µM | 0.0728 µM
COC(=O)C1(C/C=C/c2ccccc2)C(=CC=O)O[C@@H]2CC(=O)N21 (single isomer, unassigned) [Example 15] | 4.43 µM | 4.27 µM
C=CCC(C(=O)O)=C1O[C@@H]2CC(=O)N2C1C(=O)OCc1ccccc1 (stereo partly drawn) [Example 24, (5R)-3-(1-Carboxy-but-3-enylidene)-7-oxo-4-oxa-1-aza-bicyclo[3.2.0]heptane-2-carboxylic acid benzyl ester] | 0.0622 µM | 0.0306 µM
CC(=O)OCC=CCC1(C(=O)OCc2ccccc2)C(=CC=O)O[C@@H]2CC(=O)N21 (stereo partly drawn) [Example 12, (5R)-2-(4-Acetoxy-but-2-enyl)-7-oxo-3-[2-oxo-ethylidene]-4-oxa-1-aza-bicyclo[3.2.0]heptane-2-carboxylic acid benzyl ester] |  | 5.9 µM
C=CCC(C=O)=C1O[C@@H]2CC(=O)N2C1(CC=C)C(=O)OCc1ccccc1 (stereo partly drawn) [Example 3, (5R)-2-Allyl-3-[1-formyl-but-3-enylidene]-7-oxo-4-oxa-1-aza-bicyclo[3.2.0]heptane-2-carboxylic acid benzyl ester] |  | 8.39 µM
CC(=O)OCC=CCC1(C(=O)OCc2ccccc2)C(=CC=O)O[C@@H]2CC(=O)N21 (stereo partly drawn) [Example 11, (5R)-2-(4-Acetoxy-but-2-enyl)-7-oxo-3-[2-oxo-ethylidene]-4-oxa-1-aza-bicyclo[3.2.0]heptane-2-carboxylic acid benzyl ester] |  | 7.31 µM
C=CCC1(C(=O)OCc2ccccc2)C(=CC=O)O[C@@H]2CC(=O)N21 (stereo partly drawn) [Example 2, (5R)-2-Allyl-7-oxo-3-[2-oxo-ethylidene]-4-oxa-1-aza-bicyclo[3.2.0]heptane-2-carboxylic acid benzyl ester] |  | 0.945 µM
COC(=O)C1/C(=C2/CC(CI)OC2=O)O[C@@H]2CC(=O)N12 (stereo partly shown) [Mixture of Example 43 and Example 44] | 0.0043 µM | 
COC(=O)C1C(=C(C=O)C/C=C/c2ccccc2)O[C@@H]2CC(=O)N12 (stereo partly shown) [Example 13] |  | 0.639 µM
